Tests used:
[1] = target: PI3Kα (p110/p85) kinase (wild type, "WT") (Homo sapiens, UniProt P42336); test: PI3Kα (p110/p85) kinase ADP-Glo Assay; assay type: biochemical; conditions: 25 uM ATP
Protocol: PI3Kα (p110/p85) kinase ADP-Glo Assay. Certain compounds disclosed herein were tested for inhibition of PI3Kα (p110/p85) kinase (wild type, “WT”) in assays based on the ADP-Glo™ Kinase Assay methodology. The assays were carried out in 384-well white plates in a reaction mixture containing PI3Kα (p110/p85) kinase, 25 µM ATP, 5.35 µg/mL PI(4,5)P2:PS Lipid Kinase Substrate and […] compound in buffer containing 50 mM HEPES pH7.5, 50 mM NaCl, 3 mM MgCl2, 0.0025% BSA and 2 mM DTT. PI3Kα (p110/p85) kinase was incubated with Lipid Kinase Substrate and compound for 30 minutes at room temperature and the reaction was initiated by the addition of ATP. After reaction at room temperature for 120 minutes, ADP-Glo™ reagents were added to terminate the kinase reaction and deplete the remaining ATP according to the manufacture's instruction (Promega Corporation). After incubation at room temperature for 1 hour, Kinase Detection Reagent (prepared by reconstituting the lyophilized Kinase Detection Substrate with Kinase Detection Buffer of the kit) was added to convert the ADP to ATP and to allow for the newly synthesized ATP to be measured using a luciferase/luciferin reaction. After incubation at room temperature for 0.5 hour, chemiluminescence signals were recorded on a PHERAstar FSX plate reader (BMG Labtech). The chemiluminescence generated in this assay correlates to the amount of ADP generated in the kinase assay, indicating kinase activity. […] The IC50 for each compound was derived from fitting the data to the four-parameter logistic equation by Dotmatics.

[2] = target: PI3Kα (p110[H1047R]/p85) kinase (Homo sapiens, UniProt P42336, H1047R); test: PI3Kα (p110[H1047R]/p85) kinase ADP-Glo Assay; assay type: biochemical; conditions: 25 uM ATP; for selectivity: WT/H1047R: ADP-Glo Assay IC50 ratio
PI3Kα (p110[H1047R]/p85) kinase, sequence (P42336 whole entry H1047R): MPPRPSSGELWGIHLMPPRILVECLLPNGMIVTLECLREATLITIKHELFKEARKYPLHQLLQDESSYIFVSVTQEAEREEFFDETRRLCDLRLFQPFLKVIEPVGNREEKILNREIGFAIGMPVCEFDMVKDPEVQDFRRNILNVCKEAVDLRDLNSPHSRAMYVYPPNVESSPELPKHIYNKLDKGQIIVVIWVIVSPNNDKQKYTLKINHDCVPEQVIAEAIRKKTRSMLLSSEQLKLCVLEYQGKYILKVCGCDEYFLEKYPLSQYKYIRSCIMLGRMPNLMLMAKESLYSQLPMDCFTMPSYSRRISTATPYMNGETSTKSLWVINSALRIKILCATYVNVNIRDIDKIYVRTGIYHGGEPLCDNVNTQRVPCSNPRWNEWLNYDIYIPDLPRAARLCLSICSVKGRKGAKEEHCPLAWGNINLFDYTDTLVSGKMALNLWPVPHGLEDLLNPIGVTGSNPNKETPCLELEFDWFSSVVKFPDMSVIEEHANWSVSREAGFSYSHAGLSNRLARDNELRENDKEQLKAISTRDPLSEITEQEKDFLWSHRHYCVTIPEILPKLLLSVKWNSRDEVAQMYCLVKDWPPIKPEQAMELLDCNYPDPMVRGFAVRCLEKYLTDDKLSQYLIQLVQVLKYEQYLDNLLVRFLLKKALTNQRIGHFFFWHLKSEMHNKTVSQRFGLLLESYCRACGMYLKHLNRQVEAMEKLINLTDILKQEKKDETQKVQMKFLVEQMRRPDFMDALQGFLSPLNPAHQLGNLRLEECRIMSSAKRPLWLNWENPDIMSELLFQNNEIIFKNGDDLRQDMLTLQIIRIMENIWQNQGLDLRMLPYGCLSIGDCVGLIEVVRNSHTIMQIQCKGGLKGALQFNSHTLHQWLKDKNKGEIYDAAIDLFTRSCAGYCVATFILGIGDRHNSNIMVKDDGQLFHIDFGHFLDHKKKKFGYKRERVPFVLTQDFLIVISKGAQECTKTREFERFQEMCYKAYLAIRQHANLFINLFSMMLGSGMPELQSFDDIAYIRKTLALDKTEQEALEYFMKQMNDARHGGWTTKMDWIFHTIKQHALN
PI3Kα (p110[H1047R]/p85) kinase, sequence (P27986 whole entry partner): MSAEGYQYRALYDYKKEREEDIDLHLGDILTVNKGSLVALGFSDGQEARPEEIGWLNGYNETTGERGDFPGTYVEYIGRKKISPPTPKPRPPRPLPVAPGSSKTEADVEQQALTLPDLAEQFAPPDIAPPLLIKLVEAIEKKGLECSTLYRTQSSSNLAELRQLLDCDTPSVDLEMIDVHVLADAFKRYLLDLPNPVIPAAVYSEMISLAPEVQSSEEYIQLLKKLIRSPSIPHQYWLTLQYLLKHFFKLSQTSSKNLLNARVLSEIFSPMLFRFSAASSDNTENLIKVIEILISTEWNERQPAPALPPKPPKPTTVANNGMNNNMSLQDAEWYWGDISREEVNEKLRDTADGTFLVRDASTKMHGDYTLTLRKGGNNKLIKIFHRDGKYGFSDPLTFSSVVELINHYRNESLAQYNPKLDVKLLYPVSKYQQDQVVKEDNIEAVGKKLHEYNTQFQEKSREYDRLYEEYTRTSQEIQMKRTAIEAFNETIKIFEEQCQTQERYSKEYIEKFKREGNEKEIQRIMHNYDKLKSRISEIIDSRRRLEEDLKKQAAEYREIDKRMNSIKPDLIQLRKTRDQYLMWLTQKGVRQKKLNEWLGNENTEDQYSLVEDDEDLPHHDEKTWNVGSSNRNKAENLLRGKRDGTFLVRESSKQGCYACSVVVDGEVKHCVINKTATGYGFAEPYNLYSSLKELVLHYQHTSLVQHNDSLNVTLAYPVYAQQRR
Protocol: PI3Kα (p110[H1047R]/p85) kinase ADP-Glo Assay. Certain compounds disclosed herein were tested for inhibition of PI3Kα (p110[H1047R]/p85) kinase in assays based on the ADP-Glo™ Kinase Assay methodology. The assays were carried out in 384-well white plates in a reaction mixture containing PI3Kα (p110[H1047R]/p85) kinase, 25 µM ATP, 5.35 µg/ml PI(4,5)P2:PS Lipid Kinase Substrate and […] compound in buffer containing 50 mM HEPES pH7.5, 50 mM NaCl, 3 mM MgCl2, 0.0025% BSA and 2 mM DTT. PI3Kα (p110[H1047R]/p85) kinase was incubated with Lipid Kinase Substrate and compound for 30 minutes at room temperature and the reaction was initiated by the addition of ATP.
After reaction at room temperature for 120 minutes, ADP-Glo™ reagents were added to terminate the kinase reaction and deplete the remaining ATP according to the manufacture's instruction (Promega Corporation). After incubation at room temperature for 1 hour, Kinase Detection Reagent (prepared by reconstituting the lyophilized Kinase Detection Substrate with Kinase Detection Buffer of the kit) was added to convert the ADP to ATP and to allow for the newly synthesized ATP to be measured using a luciferase/luciferin reaction. After incubation at room temperature for 0.5 hour, chemiluminescence signals were recorded on a PHERAstar FSX plate reader (BMG Labtech). The chemiluminescence generated in this assay correlates to the amount of ADP generated in the kinase assay, indicating kinase activity. […] The IC50 for each compound was derived from fitting the data to the four-parameter logistic equation by Dotmatics.

PI3Kα (p110/p85) kinase (wild type, "WT"), sequence (P42336 whole entry): as the sequence (P42336 whole entry H1047R) above, with R1047H counted along it
PI3Kα (p110/p85) kinase (wild type, "WT"), sequence (P27986 whole entry partner): as the sequence (P27986 whole entry partner) above

IC50 [1] [nM]	IC50 [2] [nM]	selectivity: WT/H1047R [2]	SMILES
22400	161	139.3	Cc1cc(C(C)Nc2ccccc2C(=O)O)c2cc(-c3ccccc3C)n(C)c(=O)c2c1 (centres unmarked) [Example 2, 2-((1-(2,7-dimethyl-1-oxo-3-(o-tolyl)-1,2-dihydroisoquinolin-5-yl)ethyl)amino)benzoic acid]
6860	858	8.0	COc1ccc(-c2cc3c(C(C)Nc4ccccc4C(=O)O)cc(C)cc3c(=O)n2C)cn1 (centres unmarked) [Example 15, 2-((1-(3-(6-methoxypyridin-3-yl)-2,7-dimethyl-1-oxo-1,2-dihydroisoquinolin-5-yl)ethyl)amino)benzoic acid]
2500	104	24.1	Cc1cc([C@@H](C)Nc2ccccc2C(=O)O)c2cc(-c3ccccc3)n(C)c(=O)c2c1 [Example 30, (R)-2-((1-(2,7-dimethyl-1-oxo-3-phenyl-1,2-dihydroisoquinolin-5-yl)ethyl)amino)benzoic acid]
9850	671	14.7	Cc1cc(C(C)Nc2ccccc2C(=O)O)c2cc(-c3cccc(C#N)c3)n(C)c(=O)c2c1 (centres unmarked) [Example 3, 2-((1-(3-(3-cyanophenyl)-2,7-dimethyl-1-oxo-1,2-dihydroisoquinolin-5-yl)ethyl)amino)benzoic acid]
2770	170	16.3	Cc1cc(C(C)Nc2ccccc2C(=O)O)c2cc(-c3ccccc3)n(C)c(=O)c2c1 (centres unmarked) [Example 1, 2-((1-(2,7-dimethyl-1-oxo-3-phenyl-1,2-dihydroisoquinolin-5-yl)ethyl)amino)benzoic acid]
> 100000	> 100000	–	Cc1cc([C@H](C)Nc2ccccc2C(=O)O)c2cc(-c3ccc(F)cc3)n(C)c(=O)c2c1 [Example 35, (S)-2-((1-(3-(4-fluorophenyl)-2,7-dimethyl-1-oxo-1,2-dihydroisoquinolin-5-yl)ethyl)amino)benzoic acid]
9450	375	25.2	CC#Cc1ccc(-c2cc3c(C(C)Nc4ccccc4C(=O)O)cc(C)cc3c(=O)n2C)cc1 (centres unmarked) [Example 52, 2-((1-(2,7-dimethyl-1-oxo-3-(4-(prop-1-yn-1-yl)phenyl)-1,2-dihydroisoquinolin-5-yl)ethyl)amino)benzoic acid]
2710	187	14.5	Cc1cc(C(C)Nc2ccccc2C(=O)O)c2cc(-c3ccc(F)c(F)c3)n(C)c(=O)c2c1 (centres unmarked) [Example 9, 2-((1-(3-(3,4-difluorophenyl)-2,7-dimethyl-1-oxo-1,2-dihydroisoquinolin-5-yl)ethyl)amino)benzoic acid]

More lines, now with the values behind:

SMILES	IC50 [1] [nM]	IC50 [2] [nM]	selectivity: WT/H1047R [2]
Cc1cc([C@@H](C)Nc2ccccc2C(=O)O)c2cc(-c3ccc(F)cc3)n(CC#N)c(=O)c2c1 [Example 64, (R)-2-((1-(2-(cyanomethyl)-3-(4-fluorophenyl)-7-methyl-1-oxo-1,2-dihydroisoquinolin-5-yl)ethyl)amino)benzoic acid]	2480	113	21.9
Cc1cc(C(C)Nc2ccccc2C(=O)O)c2cc(-c3cncnc3)n(C)c(=O)c2c1 (centres unmarked) [Example 61, 2-((1-(2,7-dimethyl-1-oxo-3-(pyrimidin-5-yl)-1,2-dihydroisoquinolin-5-yl)ethyl)amino)benzoic acid]	19500	790	24.6
Cc1cc(C(C)Nc2ccccc2C(=O)O)c2cc(-c3cccnc3)n(C)c(=O)c2c1 (centres unmarked) [Example 37, 2-((1-(2,7-dimethyl-1-oxo-3-(pyridin-3-yl)-1,2-dihydroisoquinolin-5-yl)ethyl)amino)benzoic acid]	12500	309	40.6
Cc1cc(C(C)Nc2ccccc2C(=O)O)c2cc(-c3ccccc3F)n(C)c(=O)c2c1 (centres unmarked) [Example 6, 2-((1-(3-(2-fluorophenyl)-2,7-dimethyl-1-oxo-1,2-dihydroisoquinolin-5-yl)ethyl)amino)benzoic acid]	2880	162	17.8
Cc1cc(C(C)Nc2ccccc2C(=O)O)c2cc(-c3cnn(-c4ccc(C(N)=O)cn4)c3)n(C)c(=O)c2c1 (centres unmarked) [Example 16, 2-((1-(3-(1-(5-carbamoylpyridin-2-yl)-1H-pyrazol-4-yl)-2,7-dimethyl-1-oxo-1,2-dihydroisoquinolin-5-yl)ethyl)amino)benzoic acid]	3670	240	15.3
Cc1cc(C(C)Nc2ccccc2C(=O)O)c2cc(-c3ccc4c(c3)CN(C)C4=O)n(C)c(=O)c2c1 (centres unmarked) [Example 70, 2-((1-(2,7-dimethyl-3-(2-methyl-1-oxoisoindolin-5-yl)-1-oxo-1,2-dihydroisoquinolin-5-yl)ethyl)amino)benzoic acid]	21100	872	24.2
Cc1cc(C(C)Nc2ccccc2C(=O)O)c2cc(-c3ccc4nc(C)sc4c3)n(C)c(=O)c2c1 (centres unmarked) [Example 18, 2-((1-(2,7-dimethyl-3-(2-methylbenzo[d]thiazol-6-yl)-1-oxo-1,2-dihydroisoquinolin-5-yl)ethyl)amino)benzoic acid]	4370	272	16.1
Cc1cc(C(C)Nc2ccccc2C(=O)O)c2cc(-c3cccc(F)c3F)n(C)c(=O)c2c1 (centres unmarked) [Example 12, 2-((1-(3-(2,3-difluorophenyl)-2,7-dimethyl-1-oxo-1,2-dihydroisoquinolin-5-yl)ethyl)amino)benzoic acid]	6690	175	38.2
Cc1cc(C(C)Nc2ccccc2C(=O)O)c2cc(-c3ccc(F)cc3)n(C3CCOC3)c(=O)c2c1 (centres unmarked) [Example 69, 2-((1-(3-(4-fluorophenyl)-7-methyl-1-oxo-2-(tetrahydrofuran-3-yl)-1,2-dihydroisoquinolin-5-yl)ethyl)amino)benzoic acid]	18800	416	45.3
Cc1cc(C(C)Nc2ccccc2C(=O)O)c2cc(-c3ccc(C4(O)CCOCC4)cc3)n(C)c(=O)c2c1 (centres unmarked) [Example 73, 2-((1-(3-(4-(4-hydroxytetrahydro-2H-pyran-4-yl)phenyl)-2,7-dimethyl-1-oxo-1,2-dihydroisoquinolin-5-yl)ethyl)amino)benzoic acid]	26100	1030	25.4
Cc1cc(C(C)Nc2ccccc2C(=O)O)c2cc(-c3ccc(CN4CCOCC4)nc3)n(C)c(=O)c2c1 (centres unmarked) [Example 78, 2-((1-(2,7-dimethyl-3-(6-(morpholinomethyl)pyridin-3-yl)-1-oxo-1,2-dihydroisoquinolin-5-yl)ethyl)amino)benzoic acid]	65900	2210	29.7
Cc1cc(C(C)Nc2ccccc2C(=O)O)c2cc(-c3ccc4nn(C)cc4c3)n(C)c(=O)c2c1 (centres unmarked) [Example 19, 2-((1-(2,7-dimethyl-3-(2-methyl-2H-indazol-5-yl)-1-oxo-1,2-dihydroisoquinolin-5-yl)ethyl)amino)benzoic acid]	6560	311	21.1
Cc1cc(C(C)Nc2ccccc2C(=O)O)c2cc(C3=Cc4ccccc4CC3)n(C)c(=O)c2c1 (centres unmarked) [Example 45, 2-((1-(3-(3,4-dihydronaphthalen-2-yl)-2,7-dimethyl-1-oxo-1,2-dihydroisoquinolin-5-yl)ethyl)amino)benzoic acid]	7210	273	26.4
Cc1cc(C(C)Nc2ccccc2C(=O)O)c2cc(-c3ccc(C(F)(F)F)nc3)n(C)c(=O)c2c1 (centres unmarked) [Example 86, 2-((1-(2,7-dimethyl-1-oxo-3-(6-(trifluoromethyl)pyridin-3-yl)-1,2-dihydroisoquinolin-5-yl)ethyl)amino)benzoic acid]	15100	575	26.3
